“And” between values parts separate entries of the source, which are not always exact repeats. Identical values can stand only once. Like-named read-outs stand apart in the source and are kept apart here.
Target: recombinant SARS-CoV-2 Mpro (Severe acute respiratory syndrome coronavirus 2, UniProt P0DTD1)
Assay: SARS-CoV-2 Mpro inhibition assay (FRET-based proteolytic activity assay)
Type: biochemical
Details: for Ki: substrate concentration-independent inhibition constant; for inhibitory activity in the in vitro test: at concentrations below 125 μM
[1] = Ki, 0.2 μM enzyme, 20 μM substrate, compound 125 to 0 μM, 2.5% DMSO
[2] = 0.2 μM enzyme, 20 μM substrate, compound 125 to 0 μM, 2.5% DMSO, read-out: IC50
[3] = 0.2 μM enzyme, 20 μM substrate, compound 125 to 0 μM, 2.5% DMSO, read-out: Ki

O=C1c2c(O)cccc2C([C@@H]2O[C@H](CO)[C@@H](O)[C@H](O)[C@H]2O)c2cc(CO)cc(O)c21 (some centres unmarked) [aloin] was tested. Which IC50 did it give?
The IC50 was 96 µM.

What about the Ki [1] of the same molecule?
Its Ki is 82 µM and 34 µM.

Which results are given for O=c1cc(-c2ccc(O)c(-c3c(O)cc(O)c4c(=O)cc(-c5ccc(O)cc5)oc34)c2)oc2cc(O)cc(O)c12 [amentoflavone]?
IC50: 28 µM; Ki [1]: 10 µM

With O=C(O[C@@H]1O[C@@H]2COC(=O)c3cc(O)c(O)c(O)c3-c3c(cc(O)c(O)c3O)C(=O)O[C@H]([C@H]1O)[C@@H]2O)c1cc(O)c(O)c(O)c1 [corilagin] as the molecule, how does the IC50 read?
Its IC50 is > 125 µM.

What about the Ki [1] of the same molecule?
Its Ki is > 125 µM.

Which IC50 does the source give for COc1ccc(-c2cc(=O)c3c(O)cc(O[C@@H]4O[C@H](CO[C@@H]5O[C@@H](C)[C@H](O)[C@@H](O)[C@H]5O)[C@@H](O)[C@H](O)[C@H]4O)cc3o2)cc1 [linarin] here?
The IC50 was > 125 µM.

What about the Ki [1] of the same molecule?
The Ki was > 125 µM.

And the “inhibitory activity in the in vitro test” value?
Its value is “lack of activity”.

With O=c1cc(-c2ccc(O)c(O)c2)oc2cc(O[C@@H]3O[C@H](CO)[C@@H](O)[C@H](O)[C@H]3O)cc(O)c12 [luteoloside] as the molecule, how does the IC50 read?
The IC50 was > 125 µM.

What about the Ki [1] of the same molecule?
The Ki was > 125 µM.

How did the IC50 turn out when C[C@@H]1O[C@@H](OC[C@H]2O[C@@H](Oc3cc(O)c4c(c3)O[C@H](c3ccc(O)cc3)CC4=O)[C@H](O)[C@@H](O)[C@@H]2O)[C@H](O)[C@H](O)[C@H]1O [narirutin] was run?
The IC50 was > 125 µM.

And the Ki [1]?
Its Ki is > 125 µM.

C[C@@H]1O[C@@H](O[C@H]2[C@H](Oc3cc(O)c4c(=O)cc(-c5ccc(O)cc5)oc4c3)O[C@H](CO)[C@@H](O)[C@@H]2O)[C@H](O)[C@H](O)[C@H]1O [rhoifolin] was tested. Which IC50 [2] did it give?
Its IC50 is 230 µM.

And the Ki [3]?
Its Ki is 82 µM.

With CC1OC(OC2C(c3c(O)cc(O)c4c(=O)cc(-c5ccc(O)cc5)oc34)OC(CO)C(O)C2O)C(O)C(O)C1O (centres unmarked) [vitexin-2-O-rhamnoside, vitexin-2-O-rhaMnoside] as the molecule, how does the IC50 read?
Its IC50 is 65 µM.

And the Ki [1]?
The Ki was 23 µM.

Which results are given for CC1CCC2(C(=O)OC3OC(CO)C(O)C(O)C3O)CCC3(C)C(=CCC4C5(C)CCC(OC6OCC(O)C(O)C6O)C(C)(C)C5CCC43C)C2C1(C)O (centres unmarked) [ziyu-glycoside I]?
IC50: > 125 µM; Ki [1]: > 125 µM; inhibitory activity in the in vitro test: nonactive

Which results are given for proanthocyanidins?
IC50 [2]: > 125 µM; inhibitory activity in the in vitro test: nonactive; Ki [3]: > 125 µM
